What was measured:
Assay type in all cases: in vivo
[1] = test system: upland rice (Oryza sp., var. Tebonnet, RICE); assay: Post-emerge test, crop safety; details: post-emerge, 14 days after application, rating scale 0-100
Outline: (§1)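 Sandy loam pots; pre-emerge: sown 1 d pre-spray, surface-watered after, then bottom-watered. Post-emerge: sown 8–21 d before, 2–3 leaf stage, + 0.25% v/v NIS, bottom-watered. Acetone, 187 l/ha track spray, 15–1000 g ai/ha. 0–100 injury score, day 14.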

[2] = test system: field corn (Zea mays L., var. Dekalb 535, CORN); assay: Post-emerge test, crop safety; details: post-emerge, 14 days after application, rating scale 0-100
Outline: as §1

[3] = test system: velvetleaf (Abutilon theophrasti, ABUTH); assay: Post-emerge test, greenhouse herbicide activity screening; details: post-emerge, 14 days after application, rating scale 0-100
Outline: (§2)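 Compounds in acetone were track-sprayed at 15–1000 g ai/ha: pre-emergence onto soil sown the previous day, then top-watered to incorporate and later bottom-watered; post-emergence onto 2–3 leaf plants with 0.25% v/v surfactant, bottom-watered only. Ratings on a 0–100 phytotoxicity scale were taken at day 14.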

[4] = test system: large crabgrass (Digitaria sanguinalis, DIGSA); assay: as above; details: post-emerge, 14 days after application, rating scale 0-100
Outline: as §2

[5] = test system: lambsquarters (Chenopodium album, CHEAL); assay: as above; details: post-emerge, 14 days after application, rating scale 0-100
Outline: as §2

[6] = test system: sicklepod (Cassia obtusifolia, CASOB); assay: as above; details: post-emerge, 14 days after application, rating scale 0-100
Outline: as §2

[7] = test system: barnyardgrass (Echinochloa crus-galli, ECHCG); assay: as above; details: post-emerge, 14 days after application, rating scale 0-100
Outline: as §2

[8] = test system: johnsongrass (Sorghum halepense, SORHA); assay: as above; details: post-emerge, 14 days after application, rating scale 0-100
Outline: as §2

[9] = test system: green foxtail (Setaria viridis, SETVI); assay: as above; details: post-emerge, 14 days after application, rating scale 0-100
Outline: as §2

[10] = test system: redroot pigweed (Amaranthus retroflexus, AMARE); assay: as above; details: post-emerge, 14 days after application
Outline: as §2

[11] = test system: ivyleaf morningglory (Ipomoea hederacea, IPOHE); assay: as above; details: post-emerge, 14 days after application, rating scale 0-100
Outline: as §2

[12] = test system: redroot pigweed (Amaranthus retroflexus, AMARE); assay: Pre-emerge test, greenhouse herbicide activity screening; details: phytotoxicity rating 0-100, 14 days after application
Outline: as §1

[13] = test system: upland rice (Oryza sp., var. Tebonnet, RICE); assay: Pre-emerge test, crop safety; details: crop damage rating 0-100, 14 days after application
Outline: as §1

[14] = test system: field corn (Zea mays L., var. Dekalb 535, CORN); assay: Pre-emerge test, crop safety; details: crop damage rating 0-100, 14 days after application
Outline: as §1

[15] = test system: velvetleaf (Abutilon theophrasti, ABUTH); assay: Pre-emerge test, greenhouse herbicide activity screening; details: phytotoxicity rating 0-100, 14 days after application
Outline: as §1

[16] = test system: large crabgrass (Digitaria sanguinalis, DIGSA); assay: as above; details: phytotoxicity rating 0-100, 14 days after application
Outline: as §1

[17] = test system: lambsquarters (Chenopodium album, CHEAL); assay: as above; details: phytotoxicity rating 0-100, 14 days after application
Outline: as §1

[18] = test system: sicklepod (Cassia obtusifolia, CASOB); assay: as above; details: phytotoxicity rating 0-100, 14 days after application
Outline: as §1

[19] = test system: barnyardgrass (Echinochloa crus-galli, ECHCG); assay: as above; details: phytotoxicity rating 0-100, 14 days after application
Outline: as §1

[20] = test system: johnsongrass (Sorghum halepense, SORHA); assay: as above; details: phytotoxicity rating 0-100, 14 days after application
Outline: as §1

[21] = test system: green foxtail (Setaria viridis, SETVI); assay: as above; details: phytotoxicity rating 0-100, 14 days after application
Outline: as §1

[22] = test system: ivyleaf morningglory (Ipomoea hederacea, IPOHE); assay: as above; details: phytotoxicity rating 0-100, 14 days after application
Outline: as §1

COc1c(Cl)cc(F)c(-n2c(=O)cc(C(F)(F)F)n(C)c2=O)c1NC(=O)OCc1ccccc1[N+](=O)[O-] [4-34]
100: phytotoxicity rating ABUTH ([3]; 63 g ai/ha) | phytotoxicity rating ABUTH ([3]; 250 g ai/ha) | phytotoxicity rating CHEAL ([5]; 63 g ai/ha) | phytotoxicity rating CHEAL ([5]; 250 g ai/ha) | phytotoxicity rating CASOB ([6]; 250 g ai/ha) | phytotoxicity rating AMARE ([10]; 63 g ai/ha, rating scale 0-100 (0 no damage, 100 complete death)) | phytotoxicity rating AMARE ([10]; 250 g ai/ha, rating scale 0-100) | phytotoxicity rating IPOHE ([11]; 63 g ai/ha) | Pre-emerge Herbicidal Activity AMARE ([12]; 63 g ai/ha) | Pre-emerge Herbicidal Activity AMARE ([12]; 250 g ai/ha) | Pre-emerge Herbicidal Activity ABUTH ([15]; 63 g ai/ha) | Pre-emerge Herbicidal Activity ABUTH ([15]; 250 g ai/ha) | Pre-emerge Herbicidal Activity CHEAL ([17]; 63 g ai/ha) | Pre-emerge Herbicidal Activity CHEAL ([17]; 250 g ai/ha) | Pre-emerge Herbicidal Activity SETVI ([21]; 250 g ai/ha)
35: phytotoxicity rating DIGSA ([4]; 63 g ai/ha)
30: phytotoxicity rating SORHA ([8]; 63 g ai/ha) | phytotoxicity rating SORHA ([8]; 250 g ai/ha) | Pre-emerge Herbicidal Activity IPOHE ([22]; 63 g ai/ha)
80: phytotoxicity rating RICE (crop damage) ([1]; 250 g ai/ha) | Pre-emerge Herbicidal Activity SORHA ([20]; 250 g ai/ha) | Pre-emerge Herbicidal Activity SETVI ([21]; 63 g ai/ha) | Pre-emerge Herbicidal Activity IPOHE ([22]; 250 g ai/ha)
95: Pre-emerge Herbicidal Activity RICE ([13]; 250 g ai/ha) | Pre-emerge Herbicidal Activity DIGSA ([16]; 250 g ai/ha) | Pre-emerge Herbicidal Activity CASOB ([18]; 250 g ai/ha)
60: phytotoxicity rating DIGSA ([4]; 250 g ai/ha)
75: phytotoxicity rating SETVI ([9]; 250 g ai/ha)
40: phytotoxicity rating RICE (crop damage) ([1]; 63 g ai/ha) | Pre-emerge Herbicidal Activity CASOB ([18]; 63 g ai/ha) | Pre-emerge Herbicidal Activity SORHA ([20]; 63 g ai/ha)
10: Pre-emerge Herbicidal Activity CORN ([14]; 63 g ai/ha)
25: phytotoxicity rating CORN (crop damage) ([2]; 63 g ai/ha)
20: phytotoxicity rating ECHCG ([7]; 63 g ai/ha)
50: phytotoxicity rating CORN (crop damage) ([2]; 250 g ai/ha) | phytotoxicity rating ECHCG ([7]; 250 g ai/ha) | phytotoxicity rating SETVI ([9]; 63 g ai/ha) | Pre-emerge Herbicidal Activity RICE ([13]; 63 g ai/ha) | Pre-emerge Herbicidal Activity ECHCG ([19]; 63 g ai/ha)
90: phytotoxicity rating CASOB ([6]; 63 g ai/ha) | phytotoxicity rating IPOHE ([11]; 250 g ai/ha) | Pre-emerge Herbicidal Activity CORN ([14]; 250 g ai/ha) | Pre-emerge Herbicidal Activity DIGSA ([16]; 63 g ai/ha) | Pre-emerge Herbicidal Activity ECHCG ([19]; 250 g ai/ha)

— patent US6355799B1, “Substituted benzene compounds, process for their preparation, and herbicidal and defoliant compositions containing them” (ISK Americas Incorporated, priority 1997, dated 2002)
